Measured values from ChEMBL document CHEMBL5108065 (J Med Chem, 2022).
In brackets after ≈: the same amount, converted by molar mass. Activity calls are given as the source filed them. No cut-off for these calls is given here.

Columns and labels:
[1] = Solubility of the compound in FeSSIF at pH 5.8; format: physicochemical; conditions: simulated gi fluid
[2] = system: Plasmodium falciparum; assay: Antimalarial activity against Plasmodium falciparum infected NSG mouse model at 50 mg/kg, po administered daily for 3 days; format: functional, organism-based; conditions: time 3.0 day
[3] = system: Plasmodium falciparum; assay: Antimalarial activity against blood stage Plasmodium infected in NSG mouse model assessed as parasite recrudescence by measuring parasitemia at 50 mg/kg, po measured 60 days by flow cytometry; format: functional, organism-based; conditions: time 60.0 day
[4] = system: Plasmodium berghei; assay: Antimalarial activity against Plasmodium berghei sporozoites infected in naive C57B/6 liver mouse model assessed as decrease in liver infection at 50 mg/kg, po administered once daily for 1 to 2 days by Giemsa staining based microscopic analysis; format: functional, organism-based; conditions: time 1-2 day
[5] = system: Plasmodium berghei; assay: Antimalarial activity against Plasmodium berghei sporozoites infected in naive C57B/6 liver mouse model assessed as decrease in liver infection at 50 mg/kg, po administered twice daily for 1 to 2 days by Giemsa staining based microscopic analysis; format: functional, organism-based; conditions: time 1-2 day
[6] = system: Plasmodium berghei; assay: Antimalarial activity against luciferase expressing Plasmodium berghei sporozoites infected in naive C57B/6 liver mouse model assessed as decrease in liver infection at 50 mg/kg, po administered twice daily on day 8 by Giemsa staining based microscopic analysis; format: functional, organism-based; conditions: time 8.0 day
[7] = Lipophilicity, logD of compound at pH 7.4; format: physicochemical; conditions: buffer
[8] = Drug metabolism in human hepatocytes assessed as (S)-6-(2-chloro-3-((6-cyclopropylpyridin-3-yl)amino)phenyl)-2-imino-6-methyl-3-((2S,4S)-2-methyltetrahydro-2H-pyran-4-yl)tetrahydropyrimidin-4(1H)-one metabolite formation; format: ADME, cell-based, Hepatocyte
[9] = Drug metabolism in dog hepatocytes assessed as (S)-6-(2-chloro-3-((6-cyclopropylpyridin-3-yl)amino)phenyl)-2-imino-6-methyltetrahydropyrimidin-4(1H)-one metabolite formation; format: ADME, cell-based, Canis lupus familiaris, Hepatocyte
[10] = Drug metabolism in rat hepatocytes assessed as (S)-6-(2-chloro-3-((6-cyclopropylpyridin-3-yl)amino)phenyl)-2-imino-6-methyl-3-((2S,4S)-2-methyltetrahydro-2H-pyran-4-yl)tetrahydropyrimidin-4(1H)-one metabolite formation; format: ADME, cell-based, Hepatocyte
[11] = system: HepG2; assay: Cytotoxicity against human HepG2 cells assessed reduction in cell viability; format: toxicity, cell-based
[12] = target: Voltage-gated inwardly rectifying potassium channel KCNH2 (Homo sapiens, UniProt Q12809); assay: Inhibition of hERG cardiac ion channel by patch clamp assay; format: toxicity
[13] = target: Voltage-dependent L-type calcium channel subunit alpha-1C (Homo sapiens, UniProt Q13936); assay: Inhibition of Cav1.2 (unknown origin) cardiac ion channel by patch clamp assay; format: toxicity
[14] = system: Plasmodium falciparum; assay: Antimalarial activity against Plasmodium falciparum Dd2 harbouring Pf-crt, Pf-mdrl,Pf-dhfr, Pf-dhps mutated loci assessed as inhibition of parasite growth pretreated for 48 hrs followed by [3H]-hypoxanthine addition measured after 24 hrs by scintillation counting method; format: functional, organism-based
[15] = system: Plasmodium falciparum; assay: Antimalarial activity against Plasmodium falciparum K1 harbouring Pf-crt, Pf-mdrl,Pf-dhfr, Pf-dhps mutated loci assessed as inhibition of parasite growth pretreated for 48 hrs followed by [3H]-hypoxanthine addition measured after 24 hrs by scintillation counting method; format: functional, organism-based
[16] = system: Plasmodium falciparum; assay: Antimalarial activity against Plasmodium falciparum Dd2048 harbouring pfpi4k mutated loci assessed as inhibition of parasite growth pretreated for 48 hrs followed by [3H]-hypoxanthine addition measured after 24 hrs by scintillation counting method; format: functional, organism-based
[17] = system: Plasmodium falciparum; assay: Antimalarial activity against DDD107498 resistant Plasmodium falciparum Dd2 harbouring pfeef2 mutated loci assessed as inhibition of parasite growth pretreated for 48 hrs followed by [3H]-hypoxanthine addition measured after 24 hrs by scintillation counting method; format: functional, organism-based
[18] = system: Plasmodium falciparum; assay: Antimalarial activity against DSM265 resistant Plasmodium falciparum Dd2 harbouring pf-dhodh mutated loci assessed as inhibition of parasite growth pretreated for 48 hrs followed by [3H]-hypoxanthine addition measured after 24 hrs by scintillation counting method; format: functional, organism-based
[19] = system: Plasmodium falciparum; assay: Antimalarial activity against KAF156 resistant Plasmodium falciparum Dd2 harbouring pf-carl mutated loci assessed as inhibition of parasite growth pretreated for 48 hrs followed by [3H]-hypoxanthine addition measured after 24 hrs by scintillation counting method; format: functional, organism-based
[20] = system: Plasmodium falciparum; assay: Antimalarial activity against Plasmodium falciparum infected NSG mouse model assessed as accumulation of circulating mature schizonts measured after 2 cycles of drug exposure at 60 mg/kg, po bid administered daily for 3 days; format: functional, organism-based; conditions: time 3.0 day
[21] = Intrinsic clearance in rat hepatocytes measured per 10^6 cells; format: ADME, cell-based, Hepatocyte
[22] = Clearance in Cynomolgus monkey blood at 1 mg/kg, iv measured at 2 to 72 hrs by LC-MS/MS analysis; format: ADME, organism-based, Macaca fascicularis; conditions: whole blood, time 2-72 hrs
[23] = Terminal half life in Cynomolgus monkey blood at 1 mg/kg, iv measured at 2 to 72 hrs by LC-MS/MS analysis; format: ADME, organism-based, Macaca fascicularis; conditions: whole blood, time 2-72 hrs, read-out: beta t1/2 (converted)
[24] = Cmax in Cynomolgus monkey blood at 10 mg/kg, po measured at 2 to 72 hrs by LC-MS/MS analysis; format: ADME, organism-based, Macaca fascicularis; set-up: dose 10 mg/kg, time 2-72 hrs, route po; conditions: whole blood
[25] = AUC in Cynomolgus monkey blood at 10 mg/kg, po measured at 2 to 72 hrs by LC-MS/MS analysis; format: ADME, organism-based, Macaca fascicularis; set-up: dose 10 mg/kg, time 2-72 hrs, route po
[26] = Oral bioavailability in Cynomolgus monkey blood at 10 mg/kg measured at 2 to 72 hrs by LC-MS/MS analysis; format: ADME, organism-based, Macaca fascicularis; conditions: time 2-72 hrs
[27] = Cardiotoxicity in anesthetized guinea-pig assessed as QRS widening at 90 nM; format: toxicity, Cavia porcellus; conditions: 0.09 µM
[28] = Cardiotoxicity in anesthetized guinea-pig assessed as cardiac contractility; format: toxicity, Cavia porcellus; conditions: 0.09 µM, DDE = dose-dependent effect, dose 90 nM
[29] = fAUC in Han Wistar rat at 1000 mg/kg, po administered every other day for 7 days; format: ADME, organism-based; conditions: in vivo, 168 h, time 7 day
[30] = AUC in Han Wistar rat at 1000 mg/kg, po administered every other day for 7 days; format: ADME, organism-based; set-up: dose 1000 mg/kg, time 7 day, route po; conditions: in vivo, 168 h
[31] = Toxicity in Han Wistar rat assessed as changes in ophthalmology at 250 to 1000 mg/kg, po administered every other day for 7 days; format: organism-based; conditions: in vivo, 168 h, dose 250-1000 mg/kg, time 7 day
[32] = Toxicity in Han Wistar rat assessed as effect on mydriasis at 250 to 1000 mg/kg, po administered every other day for 7 days; format: organism-based; conditions: in vivo, 168 h, dose 250-1000 mg/kg, time 7 day
[33] = Toxicity in Han Wistar rat assessed as effect on pupillary reflex at 250 to 1000 mg/kg, po administered every other day for 7 days; format: organism-based; conditions: in vivo, 168 h, dose 250-1000 mg/kg, time 7 day
[34] = Toxicity in Han Wistar rat assessed as body weight gain at 250 to 1000 mg/kg, po administered every other day for 7 days; format: organism-based; conditions: in vivo, 168 h, dose 250-1000 mg/kg, time 7 day
[35] = Toxicity in Han Wistar rat assessed as structural changes in retina at 250 to 1000 mg/kg, po administered every other day for 7 days; format: organism-based; conditions: in vivo, 168 h, dose 250-1000 mg/kg, time 7 day
[36] = Toxicity in Han Wistar rat assessed as effect on photopic amplitude at 1000 mg/kg, po administered every other day for 7 days by ERG analysis; format: organism-based; conditions: in vivo, 168 h, time 7 day
[37] = in vivo; conditions: cynomolgus monkey, blood, po, 10 mg/kg
[38] = system: Plasmepsin X (Plasmodium falciparum); assay: Binding affinity to Plasmodium falciparum PMX assessed as dissociation constant by SPR analysis

Voltage-dependent L-type calcium channel subunit alpha-1C, sequence (Q13936 whole entry): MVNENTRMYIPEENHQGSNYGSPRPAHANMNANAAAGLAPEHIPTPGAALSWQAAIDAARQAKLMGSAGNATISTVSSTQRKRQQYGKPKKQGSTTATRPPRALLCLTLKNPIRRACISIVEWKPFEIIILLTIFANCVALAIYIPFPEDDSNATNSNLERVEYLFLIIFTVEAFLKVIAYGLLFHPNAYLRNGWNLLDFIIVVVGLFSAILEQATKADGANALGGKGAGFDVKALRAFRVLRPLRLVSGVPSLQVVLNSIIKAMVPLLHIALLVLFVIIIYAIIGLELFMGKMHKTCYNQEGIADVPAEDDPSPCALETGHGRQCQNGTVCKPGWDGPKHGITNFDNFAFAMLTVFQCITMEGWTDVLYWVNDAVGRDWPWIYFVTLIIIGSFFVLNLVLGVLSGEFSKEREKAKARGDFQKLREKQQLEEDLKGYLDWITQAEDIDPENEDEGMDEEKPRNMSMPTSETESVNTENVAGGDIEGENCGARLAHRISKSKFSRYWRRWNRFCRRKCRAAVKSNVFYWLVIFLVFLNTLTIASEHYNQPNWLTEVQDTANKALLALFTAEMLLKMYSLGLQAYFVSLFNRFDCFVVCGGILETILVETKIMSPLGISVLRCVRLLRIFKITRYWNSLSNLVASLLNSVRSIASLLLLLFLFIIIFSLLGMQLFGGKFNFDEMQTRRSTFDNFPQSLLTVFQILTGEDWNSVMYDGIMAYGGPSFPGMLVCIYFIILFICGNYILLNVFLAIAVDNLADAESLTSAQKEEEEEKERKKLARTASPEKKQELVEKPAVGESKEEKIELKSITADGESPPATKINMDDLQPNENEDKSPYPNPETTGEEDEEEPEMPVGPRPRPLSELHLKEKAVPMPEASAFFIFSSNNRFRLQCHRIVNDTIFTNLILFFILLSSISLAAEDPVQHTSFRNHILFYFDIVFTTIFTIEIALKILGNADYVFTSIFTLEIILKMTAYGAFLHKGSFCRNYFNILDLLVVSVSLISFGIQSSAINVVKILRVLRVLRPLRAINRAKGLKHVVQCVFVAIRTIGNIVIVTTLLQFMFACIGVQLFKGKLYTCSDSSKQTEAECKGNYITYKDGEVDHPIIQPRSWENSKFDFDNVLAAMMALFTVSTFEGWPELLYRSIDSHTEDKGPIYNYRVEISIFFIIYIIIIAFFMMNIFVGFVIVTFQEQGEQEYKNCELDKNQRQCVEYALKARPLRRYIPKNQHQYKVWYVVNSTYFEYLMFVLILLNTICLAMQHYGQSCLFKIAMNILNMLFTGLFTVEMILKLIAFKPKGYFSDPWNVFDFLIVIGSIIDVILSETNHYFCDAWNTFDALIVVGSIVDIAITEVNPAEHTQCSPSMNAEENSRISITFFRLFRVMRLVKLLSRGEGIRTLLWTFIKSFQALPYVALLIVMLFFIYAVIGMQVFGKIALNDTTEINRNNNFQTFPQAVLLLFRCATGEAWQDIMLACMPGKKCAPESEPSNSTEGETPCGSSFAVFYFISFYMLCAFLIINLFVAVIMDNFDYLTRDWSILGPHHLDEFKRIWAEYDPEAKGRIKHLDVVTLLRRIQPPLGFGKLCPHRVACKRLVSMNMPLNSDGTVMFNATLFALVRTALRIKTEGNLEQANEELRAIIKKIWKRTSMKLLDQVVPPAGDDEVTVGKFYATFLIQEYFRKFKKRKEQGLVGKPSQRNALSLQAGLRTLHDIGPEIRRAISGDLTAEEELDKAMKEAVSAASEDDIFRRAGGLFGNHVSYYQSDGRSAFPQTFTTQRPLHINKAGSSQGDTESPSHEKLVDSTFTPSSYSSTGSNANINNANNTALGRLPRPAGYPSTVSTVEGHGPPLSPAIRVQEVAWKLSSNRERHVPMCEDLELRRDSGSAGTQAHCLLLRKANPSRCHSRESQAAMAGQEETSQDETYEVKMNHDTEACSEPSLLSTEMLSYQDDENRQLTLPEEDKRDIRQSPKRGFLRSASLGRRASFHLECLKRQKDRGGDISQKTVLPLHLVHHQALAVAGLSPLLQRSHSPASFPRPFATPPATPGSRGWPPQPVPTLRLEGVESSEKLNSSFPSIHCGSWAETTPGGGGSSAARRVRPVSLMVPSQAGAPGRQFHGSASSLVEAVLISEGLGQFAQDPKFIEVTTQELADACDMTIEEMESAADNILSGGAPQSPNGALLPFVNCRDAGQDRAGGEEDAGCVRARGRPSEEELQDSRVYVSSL
Voltage-gated inwardly rectifying potassium channel KCNH2, sequence (Q12809 whole entry): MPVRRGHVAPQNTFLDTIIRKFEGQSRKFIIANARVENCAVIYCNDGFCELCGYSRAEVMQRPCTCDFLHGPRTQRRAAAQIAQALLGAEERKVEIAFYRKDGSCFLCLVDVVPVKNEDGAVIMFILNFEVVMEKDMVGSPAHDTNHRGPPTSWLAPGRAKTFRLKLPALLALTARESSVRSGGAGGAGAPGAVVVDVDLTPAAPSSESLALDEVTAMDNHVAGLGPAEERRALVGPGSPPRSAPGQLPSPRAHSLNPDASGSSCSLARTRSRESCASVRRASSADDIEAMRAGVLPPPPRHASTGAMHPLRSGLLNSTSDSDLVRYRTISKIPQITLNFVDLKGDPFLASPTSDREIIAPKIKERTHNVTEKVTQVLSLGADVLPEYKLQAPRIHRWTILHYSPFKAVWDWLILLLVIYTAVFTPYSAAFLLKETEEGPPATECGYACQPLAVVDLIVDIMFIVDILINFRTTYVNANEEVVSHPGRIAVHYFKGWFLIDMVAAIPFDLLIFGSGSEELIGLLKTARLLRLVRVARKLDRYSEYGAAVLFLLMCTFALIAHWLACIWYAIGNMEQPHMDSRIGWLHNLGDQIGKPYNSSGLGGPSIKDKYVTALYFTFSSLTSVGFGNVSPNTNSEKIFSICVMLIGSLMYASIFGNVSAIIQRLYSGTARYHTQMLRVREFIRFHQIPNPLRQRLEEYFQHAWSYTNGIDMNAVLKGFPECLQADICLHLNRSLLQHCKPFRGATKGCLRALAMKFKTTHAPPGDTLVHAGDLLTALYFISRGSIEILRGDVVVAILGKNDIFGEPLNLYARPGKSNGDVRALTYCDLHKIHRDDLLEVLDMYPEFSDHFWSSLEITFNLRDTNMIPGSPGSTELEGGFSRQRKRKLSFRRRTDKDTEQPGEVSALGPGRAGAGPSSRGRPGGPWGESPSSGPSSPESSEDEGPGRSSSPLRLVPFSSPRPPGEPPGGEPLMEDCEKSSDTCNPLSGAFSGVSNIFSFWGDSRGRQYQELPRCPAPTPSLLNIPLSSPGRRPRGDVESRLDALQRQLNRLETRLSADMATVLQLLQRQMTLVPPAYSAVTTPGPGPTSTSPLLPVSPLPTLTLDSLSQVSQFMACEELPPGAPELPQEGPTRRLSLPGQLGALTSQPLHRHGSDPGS

C[C@H]1C[C@@H](N2C(=N)N[C@](C)(c3cccc(Nc4ccc(C5CC5)nc4)c3Cl)CC2=O)CCO1
solubility [1]: 959 µM (≈ 449 µg/mL)
Activity [2]: Active
Activity [3]: Active
Activity [4]: Active
Activity [5]: Active
Activity [6]: Active
logD [7]: 2.5
Drug metabolism [8]: Metabolite_Detected
Drug metabolism [9]: Metabolite_Detected
Drug metabolism [10]: Metabolite_Detected
IC50 [11]: 16 µM
IC50 [12]: 14 µM
IC50 [13]: 27 µM

C[C@H]1C[C@@H](N2C(=N)N[C@](C)(c3cccc(NC(=O)c4cccc(C#N)c4)c3Cl)CC2=O)CCO1
IC50 [14]: 0.018 µM
IC50 [15]: 0.033 µM
IC50 [16]: 0.02 µM
IC50 [17]: 0.022 µM
IC50 [18]: 0.022 µM
IC50 [19]: 0.019 µM
Activity [20]: Active
CLH [21]: 66 µL/min
clearance [22]: 1.13 L/h/kg
half-life [23]: 4.1 h
Cmax [24]: 2.56 µM
AUC [25]: 7.38 µM·h
bioavailability [26]: 39%
Activity [27]: Non-Toxic
Activity [28]: Dde
fAUC [29]: 908 µM·h
AUC [30]: 2182 µM·h
Activity [31]: Non-Toxic
Activity [32]: Non-Toxic
Activity [33]: Non-Toxic
Activity [34]: Non-Toxic
Activity [35]: Non-Toxic
Activity [36]: Non-Toxic
Tmax [37]: 1 h
Kd [38]: 0.0055 µM
